According to ChEMBL document CHEMBL1268881, “Peripheral but crucial: a hydrophobic pocket (Tyr(706), Leu(337), and Met(336)) for potent and selective inhibition of neuronal nitric oxide synthase” (Bioorg Med Chem Lett, 2010):
pKi: −log10 of the molar value.

What was measured:
Nitric oxide synthase 1 [1] = target: Nitric oxide synthase 1 (Rattus norvegicus, UniProt P29476); experiment: Inhibition of rat nNOS expressed in Escherichia coli assessed as inhibition of nitric oxide formation by hemoglobin capture assay
[2] = target: T1, Nitric oxide synthase, inducible (Mus musculus, UniProt P29477); experiment: Inhibition of mouse iNOS expressed in Escherichia coli assessed as inhibition of nitric oxide formation by hemoglobin capture assay
T1 sequence (P29477 whole entry): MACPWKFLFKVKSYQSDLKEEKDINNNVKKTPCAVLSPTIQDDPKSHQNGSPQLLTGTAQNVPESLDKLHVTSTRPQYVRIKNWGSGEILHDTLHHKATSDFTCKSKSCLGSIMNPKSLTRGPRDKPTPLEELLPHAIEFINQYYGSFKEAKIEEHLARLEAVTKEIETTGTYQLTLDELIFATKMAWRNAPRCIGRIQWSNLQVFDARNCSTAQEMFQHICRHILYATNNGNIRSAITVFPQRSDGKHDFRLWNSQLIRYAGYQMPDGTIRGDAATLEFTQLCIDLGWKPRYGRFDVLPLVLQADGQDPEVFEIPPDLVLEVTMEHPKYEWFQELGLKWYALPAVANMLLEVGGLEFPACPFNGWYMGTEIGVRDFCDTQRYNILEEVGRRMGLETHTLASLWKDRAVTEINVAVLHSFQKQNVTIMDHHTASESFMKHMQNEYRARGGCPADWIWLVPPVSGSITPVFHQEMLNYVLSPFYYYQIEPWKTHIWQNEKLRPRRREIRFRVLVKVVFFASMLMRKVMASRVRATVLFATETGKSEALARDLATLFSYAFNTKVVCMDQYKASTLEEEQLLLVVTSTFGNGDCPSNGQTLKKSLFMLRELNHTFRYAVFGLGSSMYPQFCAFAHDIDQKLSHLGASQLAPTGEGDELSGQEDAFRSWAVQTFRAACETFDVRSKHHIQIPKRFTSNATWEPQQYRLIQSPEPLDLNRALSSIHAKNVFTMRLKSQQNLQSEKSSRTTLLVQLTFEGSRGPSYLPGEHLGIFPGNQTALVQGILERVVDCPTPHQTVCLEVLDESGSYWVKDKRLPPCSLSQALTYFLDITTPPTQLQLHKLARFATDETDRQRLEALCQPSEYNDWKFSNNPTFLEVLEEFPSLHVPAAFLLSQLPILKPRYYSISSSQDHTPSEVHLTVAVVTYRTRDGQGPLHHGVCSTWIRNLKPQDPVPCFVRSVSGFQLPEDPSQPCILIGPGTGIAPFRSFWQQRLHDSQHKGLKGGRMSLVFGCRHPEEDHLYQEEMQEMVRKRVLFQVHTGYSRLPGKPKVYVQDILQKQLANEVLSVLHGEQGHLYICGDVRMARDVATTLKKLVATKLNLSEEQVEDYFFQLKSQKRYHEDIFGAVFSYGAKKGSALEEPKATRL

Nitric oxide synthase 1 [3] = target: Nitric oxide synthase 1 (Homo sapiens, UniProt P29475); experiment: Inhibition of human nNOS expressed in Escherichia coli assessed as inhibition of nitric oxide formation by hemoglobin capture assay
Nitric oxide synthase 3 = target: T2, Nitric oxide synthase 3 (Bos taurus, UniProt P29473)
T2 sequence (P29473 whole entry): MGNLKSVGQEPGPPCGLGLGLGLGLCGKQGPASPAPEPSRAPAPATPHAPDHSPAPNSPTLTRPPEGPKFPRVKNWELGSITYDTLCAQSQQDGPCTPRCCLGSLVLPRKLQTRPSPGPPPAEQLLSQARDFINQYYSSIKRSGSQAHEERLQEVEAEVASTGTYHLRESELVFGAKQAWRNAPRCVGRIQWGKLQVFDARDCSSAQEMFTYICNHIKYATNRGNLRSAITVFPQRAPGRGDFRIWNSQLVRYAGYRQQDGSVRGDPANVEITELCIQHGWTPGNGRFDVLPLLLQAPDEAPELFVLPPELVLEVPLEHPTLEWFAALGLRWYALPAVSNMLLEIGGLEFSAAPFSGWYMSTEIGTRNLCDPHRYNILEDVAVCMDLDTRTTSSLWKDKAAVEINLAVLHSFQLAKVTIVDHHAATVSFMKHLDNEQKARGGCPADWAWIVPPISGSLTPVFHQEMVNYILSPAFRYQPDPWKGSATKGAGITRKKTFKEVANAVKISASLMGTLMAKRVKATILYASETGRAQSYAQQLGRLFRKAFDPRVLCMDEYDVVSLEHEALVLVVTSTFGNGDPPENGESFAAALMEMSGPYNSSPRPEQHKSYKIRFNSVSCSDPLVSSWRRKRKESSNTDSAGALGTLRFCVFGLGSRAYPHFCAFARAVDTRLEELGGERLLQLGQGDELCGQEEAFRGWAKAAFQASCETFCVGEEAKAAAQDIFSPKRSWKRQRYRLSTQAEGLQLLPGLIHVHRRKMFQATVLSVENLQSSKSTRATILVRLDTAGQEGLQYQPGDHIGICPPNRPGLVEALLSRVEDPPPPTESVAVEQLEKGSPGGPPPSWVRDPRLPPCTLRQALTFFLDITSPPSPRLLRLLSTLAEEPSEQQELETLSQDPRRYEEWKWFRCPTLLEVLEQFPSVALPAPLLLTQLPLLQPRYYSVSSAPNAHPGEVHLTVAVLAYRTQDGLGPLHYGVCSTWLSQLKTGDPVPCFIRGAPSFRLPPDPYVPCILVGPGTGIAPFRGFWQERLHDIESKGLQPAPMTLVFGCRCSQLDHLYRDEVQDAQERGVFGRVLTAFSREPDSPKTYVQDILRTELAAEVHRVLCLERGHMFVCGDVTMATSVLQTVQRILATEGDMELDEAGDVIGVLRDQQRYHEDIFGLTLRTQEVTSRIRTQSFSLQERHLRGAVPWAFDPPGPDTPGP
Description: Inhibition of bovine eNOS expressed in Escherichia coli assessed as inhibition of nitric oxide formation by hemoglobin capture assay

Sequence of Nitric oxide synthase 1 (Rattus norvegicus, UniProt P29476) (P29476 whole entry): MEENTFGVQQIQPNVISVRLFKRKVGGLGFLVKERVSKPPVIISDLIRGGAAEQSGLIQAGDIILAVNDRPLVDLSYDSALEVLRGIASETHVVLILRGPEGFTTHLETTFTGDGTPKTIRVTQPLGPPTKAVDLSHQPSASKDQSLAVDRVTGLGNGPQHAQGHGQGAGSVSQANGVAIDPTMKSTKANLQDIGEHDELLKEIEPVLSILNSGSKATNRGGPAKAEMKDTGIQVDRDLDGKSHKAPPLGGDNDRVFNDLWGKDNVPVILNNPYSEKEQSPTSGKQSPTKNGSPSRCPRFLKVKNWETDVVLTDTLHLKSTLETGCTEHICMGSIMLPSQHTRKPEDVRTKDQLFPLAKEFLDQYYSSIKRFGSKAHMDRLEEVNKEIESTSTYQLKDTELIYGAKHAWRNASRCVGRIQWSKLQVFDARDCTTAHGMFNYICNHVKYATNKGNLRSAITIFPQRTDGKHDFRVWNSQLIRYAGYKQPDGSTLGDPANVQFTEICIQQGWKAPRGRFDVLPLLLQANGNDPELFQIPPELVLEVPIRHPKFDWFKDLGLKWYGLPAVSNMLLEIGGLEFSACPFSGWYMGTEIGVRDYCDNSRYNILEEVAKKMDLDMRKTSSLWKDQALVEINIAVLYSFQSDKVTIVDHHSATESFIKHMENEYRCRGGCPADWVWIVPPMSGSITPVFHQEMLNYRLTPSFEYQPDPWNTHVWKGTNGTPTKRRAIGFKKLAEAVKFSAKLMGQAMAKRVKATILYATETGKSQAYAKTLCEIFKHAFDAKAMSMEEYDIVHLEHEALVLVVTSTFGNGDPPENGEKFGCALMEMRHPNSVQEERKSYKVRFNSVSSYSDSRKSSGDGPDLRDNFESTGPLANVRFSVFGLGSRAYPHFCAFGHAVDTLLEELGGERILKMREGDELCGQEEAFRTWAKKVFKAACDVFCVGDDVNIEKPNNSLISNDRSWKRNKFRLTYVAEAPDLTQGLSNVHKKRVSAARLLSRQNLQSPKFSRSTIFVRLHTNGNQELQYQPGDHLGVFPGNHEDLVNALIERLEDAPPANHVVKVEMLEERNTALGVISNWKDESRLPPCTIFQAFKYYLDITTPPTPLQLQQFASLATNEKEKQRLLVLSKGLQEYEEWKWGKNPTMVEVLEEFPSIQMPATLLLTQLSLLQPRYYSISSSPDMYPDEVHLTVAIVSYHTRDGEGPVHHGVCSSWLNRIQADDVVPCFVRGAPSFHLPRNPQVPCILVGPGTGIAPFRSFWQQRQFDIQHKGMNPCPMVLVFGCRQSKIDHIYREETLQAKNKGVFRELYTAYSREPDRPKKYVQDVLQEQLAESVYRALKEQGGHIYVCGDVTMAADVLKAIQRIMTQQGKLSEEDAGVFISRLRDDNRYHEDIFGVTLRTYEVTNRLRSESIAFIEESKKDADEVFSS
Sequence of Nitric oxide synthase 1 (Homo sapiens, UniProt P29475) (P29475 whole entry): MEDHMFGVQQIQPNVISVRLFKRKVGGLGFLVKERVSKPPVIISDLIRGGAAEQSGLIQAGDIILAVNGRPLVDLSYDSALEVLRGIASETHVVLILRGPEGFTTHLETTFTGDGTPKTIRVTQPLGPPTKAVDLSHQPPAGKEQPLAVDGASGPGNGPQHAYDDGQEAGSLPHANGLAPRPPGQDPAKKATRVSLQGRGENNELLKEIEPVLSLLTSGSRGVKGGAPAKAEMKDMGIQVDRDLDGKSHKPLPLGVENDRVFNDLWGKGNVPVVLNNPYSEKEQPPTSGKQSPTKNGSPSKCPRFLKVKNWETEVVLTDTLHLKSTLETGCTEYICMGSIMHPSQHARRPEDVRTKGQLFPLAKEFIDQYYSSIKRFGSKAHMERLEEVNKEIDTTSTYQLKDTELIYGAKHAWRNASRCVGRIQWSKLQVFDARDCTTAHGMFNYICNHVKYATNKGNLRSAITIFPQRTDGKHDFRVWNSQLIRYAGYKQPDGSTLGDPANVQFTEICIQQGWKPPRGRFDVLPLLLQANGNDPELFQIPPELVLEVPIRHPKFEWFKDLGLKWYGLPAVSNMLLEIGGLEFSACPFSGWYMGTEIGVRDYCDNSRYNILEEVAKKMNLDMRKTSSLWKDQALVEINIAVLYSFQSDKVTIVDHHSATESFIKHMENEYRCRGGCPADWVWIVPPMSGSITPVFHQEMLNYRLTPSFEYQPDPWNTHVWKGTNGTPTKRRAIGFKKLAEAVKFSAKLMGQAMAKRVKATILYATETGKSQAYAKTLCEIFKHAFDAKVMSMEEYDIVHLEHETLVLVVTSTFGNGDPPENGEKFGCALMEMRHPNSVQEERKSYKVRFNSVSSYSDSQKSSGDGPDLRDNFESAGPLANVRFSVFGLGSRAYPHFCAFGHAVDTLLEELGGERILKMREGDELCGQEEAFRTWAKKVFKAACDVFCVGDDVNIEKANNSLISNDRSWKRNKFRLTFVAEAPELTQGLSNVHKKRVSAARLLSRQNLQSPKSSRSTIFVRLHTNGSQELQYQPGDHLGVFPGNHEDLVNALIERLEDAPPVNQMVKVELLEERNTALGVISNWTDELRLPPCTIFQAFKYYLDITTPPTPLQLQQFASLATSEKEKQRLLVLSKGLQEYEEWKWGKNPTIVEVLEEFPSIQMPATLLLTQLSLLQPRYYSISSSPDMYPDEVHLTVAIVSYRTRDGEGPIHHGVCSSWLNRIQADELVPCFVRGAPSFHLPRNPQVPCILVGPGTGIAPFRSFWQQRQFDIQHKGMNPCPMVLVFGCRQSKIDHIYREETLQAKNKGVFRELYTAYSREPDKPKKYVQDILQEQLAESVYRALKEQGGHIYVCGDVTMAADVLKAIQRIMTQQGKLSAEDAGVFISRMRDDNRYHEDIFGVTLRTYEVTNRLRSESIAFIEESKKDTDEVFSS

Row | Compound | pKi (Nitric oxide synthase 1 [1]) | pKi [2] | pKi (Nitric oxide synthase 1 [3]) | pKi (Nitric oxide synthase 3)
1 | Nc1cccc(C[C@@H]2CNC[C@@H]2OCCNCCc2cccc(F)c2)n1 | 7.30 | 5.00 | 6.54 | 4.24
2 | Nc1cccc(C[C@H]2CNC[C@H]2OCCNCCc2cccc(F)c2)n1 | 6.66 | 4.88 | 5.74 | 4.23
3 | NC1=NC(C[C@@H]2CNC[C@@H]2OCCNCCc2cccc(F)c2)CCC1 (stereo partly drawn) | 6.96 | 4.66 | 6.31 | 4.24
4 | Cc1cc(N)nc(C[C@@H]2CNC[C@@H]2OCCNCCc2cccc(F)c2)c1 |  |  | 7.30 | 
